Patent US9187472B2 (AbbVie Inc., priority 2012, dated 2015)

How the values were obtained:
[1] = target: NAMPT (human, recombinant, C-terminally His-tagged) (Homo sapiens, UniProt P43490); experiment: Time-Resolved Fluorescence Resonance Energy Transfer (TR-FRET) Binding Assay of NAMPT; conditions: without substrates; 6.8 nM NAMPT, 200 nM probe, 3 hours equilibration
Method in brief: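 In a displacement format, the nicotinamide-site tracer at 200 nM competed with test compound for 6.8 nM enzyme detected via 1 nM terbium anti-His antibody; incubation lasted 3 hours at room temperature in 50 mM HEPES pH 7.5, 100 mM NaCl. Normalized 520/495 nm emission ratios gave IC50 values.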

NAMPT = NAMPT (Homo sapiens, UniProt P43490); experiment: TR-FRET Binding Assay of NAMPT with PRPP; conditions: with 200 μM PRPP and 2.5 mM ATP; 2 nM NAMPT, 2 nM probe, 16 hours equilibration
Method in brief: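 Substrate-containing variant: 200 μM PRPP plus 2.5 mM ATP are added to 2 nM NAMPT and 2 nM probe, with a 16-hour incubation ahead of TR-FRET reading.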

PC3 cells = experiment: NAMPT Cell Proliferation Assay; format: cell-based; conditions: Homo sapiens, PC-3, 120 h, 5 days incubation, cell viability by Cell Titer Glo
Method in brief: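 Seed PC3 at 500 cells/well (RPMI, 10% HI-FBS), attach overnight; add compound, 10-fold series 10 μM → 1×10^−5 μM; incubate 5 d, 37° C/5% CO2; luminescent viability readout; fit % inhibition sigmoidally for IC50.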

Sequence of NAMPT (P43490 whole entry): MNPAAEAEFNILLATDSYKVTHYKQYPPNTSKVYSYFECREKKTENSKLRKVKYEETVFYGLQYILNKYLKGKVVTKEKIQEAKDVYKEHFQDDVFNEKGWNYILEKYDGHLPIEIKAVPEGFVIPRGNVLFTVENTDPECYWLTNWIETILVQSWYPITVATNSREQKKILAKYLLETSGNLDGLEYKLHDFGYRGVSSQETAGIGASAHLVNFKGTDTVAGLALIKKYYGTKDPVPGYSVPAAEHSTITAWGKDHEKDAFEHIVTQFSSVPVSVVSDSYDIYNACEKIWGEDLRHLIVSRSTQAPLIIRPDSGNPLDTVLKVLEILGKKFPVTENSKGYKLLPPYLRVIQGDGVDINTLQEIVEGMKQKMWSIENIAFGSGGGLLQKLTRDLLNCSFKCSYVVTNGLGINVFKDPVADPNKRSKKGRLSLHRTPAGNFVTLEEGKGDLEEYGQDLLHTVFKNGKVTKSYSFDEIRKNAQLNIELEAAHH
Sequence of NAMPT (human, recombinant, C-terminally His-tagged) (P43490 whole entry): as above

IC50 [1] [nM]	IC50 (NAMPT) [nM]	IC50 (PC3 cells) [nM]	Structure (SMILES)
216	0.67	5.72	CC1(C(=O)N2CCC(c3ccc(C(=O)NCc4ccn5ccnc5c4)cc3)C2)CCCCC1 (stereo not drawn) [Example 614, N-(imidazo[1,2-a]pyridin-7-ylmethyl)-4-{1-[(1-methylcyclohexyl)carbonyl]pyrrolidin-3-yl}benzamide]
63.4	0.169	6.79	O=C(NCc1ccn2ccnc2c1)c1ccc(-c2ccc(N3CCOCC3)nc2)s1 [Example 464, N-(imidazo[1,2-a]pyridin-7-ylmethyl)-5-[6-(morpholin-4-yl)pyridin-3-yl]thiophene-2-carboxamide]
1760	0.841	3970	O=C(Nc1ccc(C(=O)NCCN2CCCC2=O)cc1)Nc1ccc2nccn2c1 [Example 15, 4-[(imidazo[1,2-a]pyridin-6-ylcarbamoyl)amino]-N-[2-(2-oxopyrrolidin-1-yl)ethyl]benzamide]
7600	0.271	4530	O=C(Nc1ccc(C(=O)NCCN2CCCC2)cc1)Nc1ccc2nccn2c1 [Example 11, 4-[(imidazo[1,2-a]pyridin-6-ylcarbamoyl)amino]-N-[2-(pyrrolidin-1-yl)ethyl]benzamide]
547	2.09	23	Cc1cc(CC(=O)N(CC2CCCO2)c2ncc(C(=O)NCc3ccc4nccn4c3)s2)on1 (stereo not drawn) [Example 125, N-(imidazo[1,2-a]pyridin-6-ylmethyl)-2-{[(3-methyl-1,2-oxazol-5-yl)acetyl](tetrahydrofuran-2-ylmethyl)amino}-1,3-thiazole-5-carboxamide]
2570	2.09	43.6	O=C(NCc1ccc2nccn2c1)c1ccc(OC2CCN(C(=O)C3CCOCC3)CC2)cc1 [Example 162, N-(imidazo[1,2-a]pyridin-6-ylmethyl)-4-{[1-(tetrahydro-2H-pyran-4-ylcarbonyl)piperidin-4-yl]oxy}benzamide]
55	0.474	6.75	CC(C)(C)C(=O)N1CCC(c2ccc(C(=O)NCc3ccn4ccnc4c3)s2)C1 (stereo not drawn) [Example 787, 5-[1-(2,2-dimethylpropanoyl)pyrrolidin-3-yl]-N-(imidazo[1,2-a]pyridin-7-ylmethyl)thiophene-2-carboxamide]
897	0.169	> 10000	O=C(NCc1ccn2ccnc2c1)c1ccc(C2CCN(C(=O)CC3CCOCC3)C2)cc1 (stereo not drawn) [Example 378, N-(imidazo[1,2-a]pyridin-7-ylmethyl)-4-[1-(tetrahydro-2H-pyran-4-ylacetyl)pyrrolidin-3-yl]benzamide]
2450	0.271	317	O=C(NCc1ccn2ccnc2c1)c1ccc(OC2CCN(C(=O)C3COCCO3)CC2)cc1 (stereo not drawn) [Example 421, 4-{[1-(1,4-dioxan-2-ylcarbonyl)piperidin-4-yl]oxy}-N-(imidazo[1,2-a]pyridin-7-ylmethyl)benzamide]
607	1.58	771	O=C(NCc1ccn2ccnc2c1)c1ccc(C2CCN(S(=O)(=O)c3ccccc3)CC2)cc1 [Example 682, N-(imidazo[1,2-a]pyridin-7-ylmethyl)-4-[1-(phenylsulfonyl)piperidin-4-yl]benzamide]
126	6.98	78.7	O=C(NCc1ccc2ncnn2c1)c1ccc(-c2cnn(CC3COCCO3)c2)s1 (stereo not drawn) [Example 676, 5-[1-(1,4-dioxan-2-ylmethyl)-1H-pyrazol-4-yl]-N-([1,2,4]triazolo[1,5-a]pyridin-6-ylmethyl)thiophene-2-carboxamide]
291	0.717	663	CCCn1cc(-c2ccc(NC(=O)NCc3ccc4nccn4c3)cc2)cn1 [Example 360, 1-(imidazo[1,2-a]pyridin-6-ylmethyl)-3-[4-(1-propyl-1H-pyrazol-4-yl)phenyl]urea]
27.2	0.417	15.6	CCc1c(-c2ccc(C(=O)NCc3ccn4ccnc4c3)s2)cnn1CC1CCCCC1 [Example 272, 5-[1-(cyclohexylmethyl)-5-ethyl-1H-pyrazol-4-yl]-N-(imidazo[1,2-a]pyridin-7-ylmethyl)thiophene-2-carboxamide]
818	1.11	142	CC(C)(C)OC(=O)N1CCC(Oc2ccc(C(=O)NCc3ccc4nccn4c3)cc2)CC1 [Example 114, tert-butyl 4-{4-[(imidazo[1,2-a]pyridin-6-ylmethyl)carbamoyl]phenoxy}piperidine-1-carboxylate]
109	0.354	7.08	O=C(NCc1ccn2ccnc2c1)Nc1ccc(C2CCN(C(=O)CC3CCOCC3)CC2)cc1 [Example 223, 1-(imidazo[1,2-a]pyridin-7-ylmethyl)-3-{4-[1-(tetrahydro-2H-pyran-4-ylacetyl)piperidin-4-yl]phenyl}urea]
250	0.382	81.7	CCC(=O)N1CCC(c2ccc(C(=O)NCc3ccn4ccnc4c3)s2)C1 (stereo not drawn) [Example 780, N-(imidazo[1,2-a]pyridin-7-ylmethyl)-5-(1-propanoylpyrrolidin-3-yl)thiophene-2-carboxamide]
120	0.412	19.4	O=C(NCc1ccn2ccnc2c1)Nc1ccc(C2CCN(C(=O)[C@H]3CCOC3)CC2)cc1 [Example 286, 1-(imidazo[1,2-a]pyridin-7-ylmethyl)-3-(4-{1-[(3S)-tetrahydrofuran-3-ylcarbonyl]piperidin-4-yl}phenyl)urea]
155	13.3	523	O=C(NCc1ccc2nccn2c1)c1cnc(N(CC2CCCO2)C(=O)Cc2nnn[nH]2)s1 (stereo not drawn) [Example 132, N-(imidazo[1,2-a]pyridin-6-ylmethyl)-2-[(tetrahydrofuran-2-ylmethyl)(1H-tetrazol-5-ylacetyl)amino]-1,3-thiazole-5-carboxamide]
80	2.57	38.8	O=C(NCc1cn2ccnc2cn1)c1ccc(C2CCN(C(=O)c3ccc(F)cc3)CC2)cc1 [Example 812, 4-[1-(4-fluorobenzoyl)piperidin-4-yl]-N-(imidazo[1,2-a]pyrazin-6-ylmethyl)benzamide]
39.4	0.92	1.26	CC/C=C(\C)C(=O)N1CCC(c2ccc(C(=O)NCc3ccn4ccnc4c3)s2)C1 (stereo not drawn) [Example 777, N-(imidazo[1,2-a]pyridin-7-ylmethyl)-5-{1-[(2E)-2-methylpent-2-enoyl]pyrrolidin-3-yl}thiophene-2-carboxamide]
81.2	0.298	712	CC(C)C(=O)N1CC(O)(c2ccc(C(=O)NCc3ccn4ccnc4c3)s2)C1 [Example 400, 5-[3-hydroxy-1-(2-methylpropanoyl)azetidin-3-yl]-N-(imidazo[1,2-a]pyridin-7-ylmethyl)thiophene-2-carboxamide]
2010	3.04	686	N#Cc1ccc(CN(C(=O)CC2CCCC2)c2ccc(C(=O)NCc3ccc4nccn4c3)cc2)cc1 [Example 215, 4-[(4-cyanobenzyl)(cyclopentylacetyl)amino]-N-(imidazo[1,2-a]pyridin-6-ylmethyl)benzamide]
301	0.2	70.7	CC(C)C(=O)N1CCC(Oc2ccc(NC(=O)NCc3ccn4ccnc4c3)cc2)CC1 [Example 442, 1-(imidazo[1,2-a]pyridin-7-ylmethyl)-3-(4-{[1-(2-methylpropanoyl)piperidin-4-yl]oxy}phenyl)urea]
25.6	0.169	6.4	CC[C@H](C)C(=O)N1CC(Oc2ccc(NC(=O)NCc3ccn4ccnc4c3)cc2)C1 [Example 426, 1-(imidazo[1,2-a]pyridin-7-ylmethyl)-3-[4-({1-[(2S)-2-methylbutanoyl]azetidin-3-yl}oxy)phenyl]urea]
232	0.862	33.5	O=C(NCc1ccn2ccnc2c1)c1ccc(C2CCN(C(=O)c3cccc(Cl)c3)C2)cc1 (stereo not drawn) [Example 597, 4-[1-(3-chlorobenzoyl)pyrrolidin-3-yl]-N-(imidazo[1,2-a]pyridin-7-ylmethyl)benzamide]
65.9	0.771	3.49	O=C(NCc1ccn2ccnc2c1)Nc1ccc(C2CCN(C(=O)C3CCC(F)(F)CC3)CC2)cc1 [Example 715, 1-(4-{1-[(4,4-difluorocyclohexyl)carbonyl]piperidin-4-yl}phenyl)-3-(imidazo[1,2-a]pyridin-7-ylmethyl)urea]
423	0.174	202	O=C(Nc1ccc(C2CCN(C(=O)CC3CCOC3)CC2)cc1)Nc1ccc2nccn2c1 (stereo not drawn) [Example 110, 1-imidazo[1,2-a]pyridin-6-yl-3-{4-[1-(tetrahydrofuran-3-ylacetyl)piperidin-4-yl]phenyl}urea]
233	0.555	23	O=C(NCc1ccn2ccnc2c1)Nc1ccc(C2CCN(C(=O)CN3CCOCC3)CC2)cc1 [Example 224, 1-(imidazo[1,2-a]pyridin-7-ylmethyl)-3-{4-[1-(morpholin-4-ylacetyl)piperidin-4-yl]phenyl}urea]
